Reference: PubChem BioAssay AID624491 (Broad Institute, 2012)
The source made the active and inactive calls.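 The calls were made as follows: active = fitted curve crossing a set activation limit at or below the highest valid dose tested; inconclusive = flat fit at 30 to 70% activation, or poor fit; inactive = the rest, including signal decreases.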

test system: D54 ERlucT glycosylation luciferase reporter, luminescence, 24 h; test: blockers of NLG process in reporter cells – D54 ERlucT cells, luminescence, cherry-picks, dose response (AID 624491);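 also: signal gain reflects blocked N-linked glycosylation of a luciferase reporter; actives raise luciferase signal so AC26 marks activators of the reporter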

SMILES	AC26
NC(N)=N/N=C/c1ccc2cccc(OCc3ccccc3)c2n1	4150 nM
COc1ccc(NC(=O)c2nc(C)c(C3(C)CC(c4ccccc4)=NO3)s2)cc1 (centres undefined)	4020 nM
COc1cc(C(=O)NCCOc2cc(C)cc(C)c2)cc(OC)c1OC	2370 nM
Cc1ccc(/C=N/NC(=O)c2cc(-c3cccnc3)nc3ccccc23)cc1	1250 nM
CS(=O)(=O)Nc1cccc(NC(=O)C2Cc3c(-c4ccccc4)ccnc3O2)c1 (centres undefined)	2360 nM
Cc1cc(C)cc(-n2c3ccc(NC(=O)Cc4cccc5ccccc45)cc3c(=O)n2C)c1	1780 nM
COc1cc(C(=O)Nc2ccc3c(c2)CCN3C(C)=O)cc(OC)c1OC	1240 nM
CCN(CC)CCn1c2ccccc2c2nc3ccccc3nc21	1950 nM
CCN1C(=O)c2cccc3c(S(=O)(=O)NCC4CCCO4)ccc1c23 (centres undefined)	2990 nM
COc1ccccc1/C=N/NC(=O)c1cc2c(OC)c(OC)ccc2[nH]1	495 nM
Cc1ccc2c(c1)c1ccc3c(c1n2C)C(=O)C=CC3=O	948 nM
COC(=O)c1c(NC(=O)c2cccnc2Cl)sc(C(=O)N(C)C)c1C	2090 nM
Cc1ccc(C(=O)N/C(=C/c2cccs2)C(=O)NCCc2c[nH]c3ccccc23)cc1	1080 nM
CCCNS(=O)(=O)c1cccc(C(=O)OCc2cc(=O)oc3cc(OC)ccc23)c1	834 nM
CCNc1ccc(Br)cc(C(=O)/C=C/c2ccc(Cl)cc2)c1=O	6710 nM
CC(C)N(CC(=O)Nc1ccc(Cl)cc1C(F)(F)F)C(=O)CCl	14500 nM
Cc1cc([N+](=O)[O-])ccc1Nc1nc2ccccc2n2cnnc12	8280 nM
O=C(CN1C(=O)NC(c2ccccc2)(c2ccccc2)C1=O)Nc1ccc(N2CCOCC2)cc1	4200 nM
COc1ccccc1-c1c(C#N)c(N)nc2c1CCc1ccccc1-2	592 nM
CCC(C)C(=O)OC1CCC=C2C=CC(C)C(CCC3CC(O)CC(=O)O3)C21 (centres undefined)	34.8 nM
O=C(c1cccs1)N1CCC(c2nc3c(nnn3Cc3cccc(Cl)c3)c(=O)[nH]2)CC1	217 nM
O=C(NCC1CCCO1)c1cc(-c2ccc(F)cc2)no1 (centres undefined)	5760 nM

SMILES	AC26
Cc1ccnc(NC(=O)CCCOc2cc(=O)n(C)c3ccccc23)c1	14900 nM
Cc1cccc(Nc2nc(N)nc(-c3oc4ccccc4c3C)n2)c1	7050 nM
C[C@H]1CN([C@@H](C)CO)C(=O)Cc2cc(NC(=O)CCC(F)(F)F)ccc2O[C@H]1CN(C)S(=O)(=O)c1ccc(F)cc1	5300 nM
Cc1ccc(C=Nc2ccccc2C(N)=O)cc1	2520 nM
O=C(NCc1ccccc1)C1Cc2c(-c3cccc(F)c3)ccnc2O1 (centres undefined)	11.2 nM
Cc1cc(NC(=O)NC(=O)c2ccccc2NC(=O)CN)ccc1Oc1ncc(Br)cn1	11000 nM
COc1ccccc1/C=C/C(=O)/C=C/c1ccccc1O	696 nM
COc1cc(OC)cc(C(=O)N2CC(=O)Nc3ccccc32)c1	565 nM
O=C(c1cn(Cc2ccccc2)nc1-c1ccccc1)N1CCN(c2ccccn2)CC1	999 nM
Cc1c(C(=O)N/N=C/c2cccnc2)sc(N)c1C#N	2000 nM
Cc1cccc(N2C(=O)N3[C@H](c4ccc(F)cc4)[C@@H]4C(=O)N(C5CCCCC5)C(=O)[C@@H]4[C@]3(Cc3ccccc3)C2=O)c1	692 nM
Oc1cccc(Nc2c3ccccc3nc3ccccc23)c1	1440 nM
COc1ccc(Nc2cc(C)nc3ccc(OC)cc23)cc1	1830 nM
CCOC(=O)c1[nH]c2c(c1-c1ccccc1)C(=O)CC(c1ccccc1)C2 (centres undefined)	1480 nM
CCc1ccc(C2c3[nH]c4ccccc4c3CCN2C(=O)c2ccc(=O)n(C)n2)cc1 (centres undefined)	1330 nM
O=C(CSCc1ccco1)Nc1cc(C(F)(F)F)ccc1N1CCOCC1	2080 nM
Cc1ccc(S(=O)(=O)[N-]c2nc3ccccc3nc2-n2cc[n+](Cc3ccccc3)c2)cc1	118 nM
Cn1cnc(Sc2ncnc3nc[nH]c23)c1[N+](=O)[O-]	1140 nM
CCOc1ccc(S(=O)(=O)NCc2cccnc2)cc1NC(=O)c1ccccc1F	9740 nM
COc1ccc(C(=O)NCC(c2ccco2)N2CCc3ccccc32)cc1 (centres undefined)	2300 nM
Cc1ccc(C(=O)N2CCN(Cc3ccccc3)CC2)cc1S(=O)(=O)N1CCOCC1	1670 nM
CCC(=NCCc1c(C)[nH]c2ccc(OC(F)(F)F)cc12)C1=C(O)CC(c2ccccc2)CC1=O (centres undefined)	817 nM

SMILES	AC26
O=C(NCCCN1CCOCC1)c1cc(-c2ccccc2)on1	5780 nM
COc1cc(/C=C/C(=O)OCC(=O)NCc2ccc(F)cc2)ccc1O	1590 nM
COc1cc(/C=C2/CCC/C(=C\c3cc(O)c(OC)c(Cl)c3)C2=O)cc(Cl)c1O	2230 nM
Cc1ccc(-c2nn3c(C)nnc3c3ccccc23)cc1S(=O)(=O)NC(C)(C)CO	826 nM
CCN1C(=O)c2cccc3c(S(=O)(=O)Nc4ccccc4OC)ccc1c23	4240 nM
O=c1[nH]c(-c2ccccc2)nc2sc(-c3ccccc3)cc12	2320 nM
O=C(NCc1ccccc1Br)c1cccc2c1C(=O)c1ccc(-c3ccc(OC(F)(F)F)cc3)cc1S2(=O)=O	4060 nM
O=C(Nc1ccccc1O)c1ccc(NS(=O)(=O)c2cccc3cccnc23)cc1	3930 nM
CCCCCCC(=O)N(O)C1CC(=O)N(c2ccc(C)cc2)C1=O (centres undefined)	3990 nM
Cc1nc(SCC(=O)Nc2ccc(F)cc2)c(C#N)c(C)c1CC(=O)c1ccc(Br)cc1	1660 nM
O=C(NO)c1ccc(OC(F)F)cc1	3430 nM
COC(=O)CNC(c1ccccc1)c1cc(Br)ccc1NC(=O)CCN1CCOCC1 (centres undefined)	4810 nM
Cc1ccc(C)c(Cn2nnc3c(=O)[nH]c(C4CCN(C(=O)c5ccco5)CC4)nc32)c1	1110 nM
Cn1c(=O)[nH]c(=O)c2c1nc(NN)n2CCOc1ccccc1	2570 nM
COc1ccc(-n2c(C)cc(C(=O)CCl)c2C)cc1	3980 nM
CCCCN(CC)CCCNC(=O)c1cc2c(=O)n(C)c3ccccc3c2n1C	3310 nM
NC(=O)CC(NC(=O)Cc1ccc(Br)cc1)c1ccc(NC2CCC2)c([N+](=O)[O-])c1 (centres undefined)	2760 nM
O=C(Nc1c2ccccc2nc2ccccc12)C(Cl)(Cl)Cl	3340 nM
CCNc1oc(/C=C/c2ccc(OCC)cc2)nc1C#N	> 19500 nM (inactive)
c1ccc(CNc2nc(-c3ccccc3)nc3ccccc23)cc1	1570 nM
CCOC(=O)c1c(NC(=O)c2cc3n(n2)C(C(F)(F)F)CC(c2cccs2)N3)sc(C)c1C (centres undefined)	5140 nM
COc1cc(C(=O)Nc2cc(C(F)(F)F)ccc2N2CCOCC2)ccc1OCC(=O)N1CCOCC1	1820 nM

SMILES	AC26
COc1ccc2c(c1)OC[C@H]1[C@H]2N2C(=O)c3cc(Br)ccc3NC(=O)[C@@]2(C)[C@H]1c1ccccc1	976 nM
O=C(N/N=C/c1cccnc1)c1cc(-c2ccccc2OCc2ccccc2)n[nH]1	1890 nM
CCOc1ccccc1N1CCN(C(=O)c2cc3ccccc3cc2OC)CC1	3440 nM
C=CCOc1ccc(/C=C2\SC(N3CCCCC3)=NC2=O)cc1	5420 nM
CC(=O)Nc1ccc(C(=O)N/N=C/c2ccccc2OCc2ccccc2)cc1	1490 nM
Cc1nc2c3cc(F)ccc3n(Cc3ccc(F)cc3)c2s1	11500 nM
COc1cc(-c2cnc3c(NC(C)=O)cc(-c4ccccc4CN(C)C)cn23)cc(OC)c1OC	2650 nM
COc1cc(C2CC(=O)Nc3cc(C)c(C)cc32)cc(OC)c1OC (centres undefined)	8880 nM
Cc1nnc2c3ccccc3c(-c3cccs3)nn12	3170 nM
COc1c(Br)cc(Br)cc1/C=N/NC(=O)c1cccnc1	10200 nM
CCc1ccc2[nH]c3nc(SCC(=O)NNC(=O)c4ccc(C(C)(C)C)cc4)nnc3c2c1	4110 nM
Cc1ccc(S(=O)(=O)N(C)C[C@H]2Oc3ccc(NC(=O)C4CCCCC4)cc3C(=O)N([C@H](C)CO)C[C@H]2C)cc1	1140 nM
COc1cc(/C=C2\SC(=S)N(CCC(=O)N3CCCCC3)C2=O)cc(OC)c1OC	6840 nM
COC(=O)c1cn(C(=O)c2cccc3ccccc23)c2ccccc12	928 nM
Cc1cc(=O)[nH]c(N/N=C/c2cc(C)n(CC(F)(F)F)c2C)n1	47.6 nM
COc1ccc2[nH]c(C(=O)N/N=C/c3ccccc3OC)cc2c1	1010 nM
COc1cc(-c2[nH]ncc2CN2CCSCC2)cc(OC)c1OC	4790 nM
COc1ccc(C=CC(=O)c2c(OC)cc(OC)c(OC)c2O)cc1	4040 nM
CC(Nc1nc(-c2cccnc2)nc2ccccc12)c1ccccc1 (centres undefined)	2830 nM
O=C(Nc1cc(Cl)ccc1N1CCOCC1)c1ccc(N2CCCC2=O)cc1	108 nM
COc1cc(-c2noc(C)c2/C=C/c2ccc(N)cc2)cc(OC)c1OC	467 nM
CC(=O)c1cccc(-c2ccnc3c2CC(C(=O)Nc2ccc4c(c2)OCO4)O3)c1 (centres undefined)	2430 nM

SMILES	AC26
COc1ccc(Nc2c3ccccc3nc3ccccc23)cc1	1020 nM
COc1ccc(CCn2c(Br)nc3c2c(=O)[nH]c(=O)n3C)cc1	1080 nM
Nc1c(C(=O)Nc2ccc(S(=O)(=O)N3CCCC3)cc2)sc2nc3ccc(OC(F)(F)F)cc3cc12	1160 nM
CCCNC(=O)c1ccccc1NC(=O)c1ccc2c(c1)NC(=O)C(C)S2 (centres undefined)	1450 nM
COc1cc2c3c(cccc3c1)C(=O)N(CCN1CCCC1)C2=O	200 nM
O=C(N/N=C/c1cccc(Br)c1)c1ccc(N2CCCC2=O)cc1	6630 nM
CC(=O)Nc1cccc(NC(=O)c2ccccc2OCc2ccccc2)c1	1350 nM
COc1cc(C)c2sc3ccccc3c(=O)c2c1NCCN(C)C	468 nM
N#Cc1c(NCCN)nc(-c2ccco2)c2c1CCCC2	1730 nM
CCc1ccc(OCC(=O)Nc2ccc(-c3cc4ccccc4oc3=O)c(OC)c2)cc1	3090 nM
CC(C)n1cc(NC(=O)c2cc(-c3ccccc3)on2)cn1	1230 nM
COc1ccc(C(=O)/C=C2/C(=O)Nc3ccccc32)c(OC)c1	4070 nM
Cc1cc(NCCCn2ccnc2)n2nc(C)c(-c3ccccc3)c2n1	1170 nM
COc1ccc(C2=NOC(C(=O)NCc3ccco3)C2)cc1 (centres undefined)	2400 nM
COc1ccc(C=CC(=O)c2ccc3cc(OC)c(OC)cc3c2)cc1OC	2860 nM
Cn1c(=O)n(C)c2cc(NS(=O)(=O)c3ccc(C(C)(C)C)cc3)ccc21	9340 nM
COc1ccc(C2=NOC(COc3ccc4c(C)cc(=O)oc4c3)C2)c(OC)c1 (centres undefined)	1070 nM
Cn1c(-c2ccccc2)c(/C=N/NC(=O)c2cccnc2)c2ccccc21	247 nM
CN1CCN(CC(=O)Nc2cc(N(C)C)nc3ccccc23)CC1	6650 nM
COC(=O)c1ccccc1-c1ccc(C(c2c(C)[nH][nH]c2=O)c2c(C)[nH][nH]c2=O)o1	5960 nM
COc1cc2c(cc1OC)-c1c3c(cc4c1[C@@H](C2)N(C)CC4)OCO3	17600 nM
